Reference: patent US20030236439A1, “Non-steroidal analogs of 2-methoxyestradiol” (priority 2002, published 2003)

Columns and labels:
[1] = system: MCF-7 cell; conditions: in vitro, over a wide range of concentrations; cited from earlier work
[2] = system: chick embryo chorioallantoic membrane; experiment: chick embryo chorioallantoic membrane (CAM) assay; assay type: in vivo; conditions: 100 μg methylcellulose disk, after 48 hours
Excerpt: Anti-proliferative activity can be evaluated in situ by testing the ability of the new non-steroidal estradiol analogs to inhibit the proliferation of new blood vessel cells (angiogenesis). A suitable assay is the chick embryo chorioallantoic membrane (CAM) assay described by Crum et al. Science 230:1375 (1985). See also, U.S. Pat. No. 5,001,116, hereby incorporated by reference, which describes the CAM assay. Briefly, fertilized chick embryos are removed from their shell on day 3 or 4, and a methylcellulose disc containing the drug is implanted on the chorioallantoic membrane. The embryos are examined 48 hours later and, if a clear avascular zone appears around the methylcellulose disc, the diameter of that zone is measured.

[3] = system: vascular endothelial cell proliferation; conditions: vascular endothelial vs tumor cell proliferation; cited from earlier work

Structure (SMILES) | estrogenic activity [1] | effect on cell mitosis and growth of new blood vessels (avascular zone) [2] | half-maximal inhibition of endothelial cell proliferation at lower concentration than tumor cell proliferation [3]
COc1cc2c(cc1O)CC[C@@H]1[C@@H]2CC[C@]2(C)[C@@H](O)CC[C@@H]12 [2-methoxyestradiol] | not estrogenic | inhibit cell mitosis and the growth of new blood vessels | 
CO[C@@H]1[C@H](OC(=O)NC(=O)CCl)CC[C@]2(CO2)[C@H]1[C@@]1(C)O[C@@H]1CC=C(C)C [AGM-1470] |  |  | 4 logs
